Test system: pBR 322 DNA with Cu2+
Assay: Pro-oxidant effect: oxidation of DNA with copper (II) ion
Conditions: 10 μM Cu2+, 37° C., 1 h
Procedure: The pro-oxidant effect of compounds 1, 2, and 3 was examined by oxidation of DNA with copper (II) ion. pBR 322 was incubated with 10 μM Cu^2+ at 37° C. for 1 h in the presence of compound 1, 2, or 3 (final concentrations between 0.35 and 45 μM). […] Lane 1 is native DNA, and lanes 2-10 are Cu^2+-oxidized DNA with 0, 45, 23, 11, 5, 3, 1.5, 0.7, and 0.35 μM antioxidant, respectively.
This was performed by co-incubation of DNA (pBR 322), copper (II) ion and antioxidant. […] This ultimately forms DNA-Cu(I)OOH, initiating a free radical cascade by which DNA damage occurs. pBR 322 was incubated with 10 μM Cu^2+ in the presence of antioxidants (0-45 μM) at 37° C. for 1 h and subjected to agarose electrophoresis. […] In FIG. 32, lane 1 is native DNA, and lanes 2-10 are Cu^2+ oxidized DNA with 0, 45, 23, 11, 5, 3, 1.5, 0.7, and 0.35 μM antioxidant, respectively. […] However, it should be noted that physiological concentrations of copper are less than 10-20 μM in plasma and approximately […] for the cation in cells.

Cc1c(C)c2c(c(C)c1O)CCC(C)(C(=O)O)O2 (centres unmarked) [Trolox, 6-hydroxy-2,5,7,8-tetramethylchroman-2-carboxylic acid]
pro-oxidant effect on DNA at the concentrations tested (0.35-45 μM antioxidant): strong pro-oxidant effect equivalent to quercetin | pro-oxidant DNA damage (11-45 μM antioxidant): DNA damage was clearly observed

Source: US8895032B2, “Dendritic nano-antioxidants” (Central Michigan University, priority 2009, dated 2014)
